Values joined by “and” are separate entries in the source; they are usually repeats but may differ in a detail not shown here. Equal values may be shown once.
Legend:
Rattus norvegicus [1] = organism: Rattus norvegicus
Rattus norvegicus [2] = organism: Rattus norvegicus; remark: listed apart in the source
Rattus norvegicus [3] = organism: Rattus norvegicus; remark: listed apart in the source
[4] = molecular target: Sodium channel protein type 9 subunit alpha (Homo sapiens, UniProt Q15858); assay: Inhibition of human Nav1.7 expressed in HEK293 cells by electrophysiology assay; assay type: cell-based
[5] = molecular target: Sodium channel protein type 2 subunit alpha (Homo sapiens, UniProt Q99250); assay: Inhibition of human Nav1.2 expressed in HEK293 cells by electrophysiology assay; assay type: cell-based
[6] = molecular target: Sodium channel protein type 5 subunit alpha (Homo sapiens, UniProt Q14524); assay: Inhibition of human Nav1.5 expressed in HEK293 cells by electrophysiology assay; assay type: cell-based
Chain of Sodium channel protein type 5 subunit alpha (Q14524 whole entry): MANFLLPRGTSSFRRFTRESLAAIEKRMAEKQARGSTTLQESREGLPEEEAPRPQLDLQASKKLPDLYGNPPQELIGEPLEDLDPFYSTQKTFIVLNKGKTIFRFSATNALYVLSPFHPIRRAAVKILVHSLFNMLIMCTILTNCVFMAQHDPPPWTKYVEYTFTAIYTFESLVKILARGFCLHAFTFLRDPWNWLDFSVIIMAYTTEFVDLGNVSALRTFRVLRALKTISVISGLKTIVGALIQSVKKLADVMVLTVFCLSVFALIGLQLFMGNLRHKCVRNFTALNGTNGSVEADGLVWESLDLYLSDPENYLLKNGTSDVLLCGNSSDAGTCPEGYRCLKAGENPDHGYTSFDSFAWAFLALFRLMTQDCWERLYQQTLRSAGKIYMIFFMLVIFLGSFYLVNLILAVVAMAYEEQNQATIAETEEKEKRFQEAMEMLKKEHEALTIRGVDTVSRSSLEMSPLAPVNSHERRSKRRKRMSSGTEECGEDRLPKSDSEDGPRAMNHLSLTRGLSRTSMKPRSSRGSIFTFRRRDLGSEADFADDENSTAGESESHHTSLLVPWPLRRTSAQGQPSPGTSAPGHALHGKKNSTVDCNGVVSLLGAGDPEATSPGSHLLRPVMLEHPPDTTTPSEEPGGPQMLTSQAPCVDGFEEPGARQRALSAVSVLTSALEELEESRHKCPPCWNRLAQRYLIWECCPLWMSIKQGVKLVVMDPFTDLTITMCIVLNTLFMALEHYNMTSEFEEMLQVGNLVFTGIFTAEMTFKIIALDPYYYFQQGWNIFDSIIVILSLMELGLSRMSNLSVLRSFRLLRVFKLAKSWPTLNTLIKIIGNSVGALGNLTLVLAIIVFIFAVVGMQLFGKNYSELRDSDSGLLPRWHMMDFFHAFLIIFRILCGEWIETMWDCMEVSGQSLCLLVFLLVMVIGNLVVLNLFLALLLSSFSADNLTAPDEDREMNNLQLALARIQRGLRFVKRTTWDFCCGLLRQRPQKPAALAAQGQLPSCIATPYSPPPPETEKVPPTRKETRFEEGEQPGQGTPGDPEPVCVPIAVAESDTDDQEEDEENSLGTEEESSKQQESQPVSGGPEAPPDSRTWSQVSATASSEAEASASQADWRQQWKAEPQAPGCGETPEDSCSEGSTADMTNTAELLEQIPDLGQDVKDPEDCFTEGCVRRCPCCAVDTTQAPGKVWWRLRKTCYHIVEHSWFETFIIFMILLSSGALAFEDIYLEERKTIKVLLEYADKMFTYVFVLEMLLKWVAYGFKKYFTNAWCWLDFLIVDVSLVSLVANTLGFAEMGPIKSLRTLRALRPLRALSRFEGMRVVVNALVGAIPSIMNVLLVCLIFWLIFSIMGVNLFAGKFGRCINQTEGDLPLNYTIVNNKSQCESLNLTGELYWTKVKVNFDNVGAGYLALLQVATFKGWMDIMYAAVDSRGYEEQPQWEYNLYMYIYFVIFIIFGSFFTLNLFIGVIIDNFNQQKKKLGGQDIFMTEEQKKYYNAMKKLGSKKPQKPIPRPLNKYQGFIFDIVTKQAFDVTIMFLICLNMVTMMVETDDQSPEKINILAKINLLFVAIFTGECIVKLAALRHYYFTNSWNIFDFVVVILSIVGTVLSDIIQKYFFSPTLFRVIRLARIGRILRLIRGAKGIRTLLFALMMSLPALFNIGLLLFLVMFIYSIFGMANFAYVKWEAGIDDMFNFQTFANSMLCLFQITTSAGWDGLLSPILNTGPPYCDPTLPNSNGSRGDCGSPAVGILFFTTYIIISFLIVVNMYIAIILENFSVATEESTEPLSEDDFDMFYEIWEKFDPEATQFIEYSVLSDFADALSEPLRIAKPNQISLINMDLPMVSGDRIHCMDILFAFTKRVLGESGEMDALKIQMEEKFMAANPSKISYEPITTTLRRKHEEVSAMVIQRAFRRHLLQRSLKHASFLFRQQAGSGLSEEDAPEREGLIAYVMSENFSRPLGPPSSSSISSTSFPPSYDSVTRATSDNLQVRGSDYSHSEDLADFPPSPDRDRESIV

[7] = molecular target: Sodium channel protein type 8 subunit alpha (Homo sapiens, UniProt Q9UQD0); assay: Inhibition of human Nav1.6 expressed in HEK293 cells by electrophysiology assay; assay type: cell-based
[8] = molecular target: Sodium channel protein type 10 subunit alpha (Homo sapiens, UniProt Q9Y5Y9); assay: Inhibition of human Nav1.8 expressed in HEK293 cells by electrophysiology assay; assay type: cell-based
Homo sapiens [9] = organism: Homo sapiens; assay: Selectivity index, ratio of IC50 for inhibition of human Nav1.2 expressed in HEK293 cells by electrophysiology assay to IC50 for inhibition of human Nav1.7 expressed in HEK293 cells by electrophysiology assay; assay type: cell-based
Homo sapiens [10] = organism: Homo sapiens; assay: Selectivity index, ratio of IC50 for inhibition of human Nav1.5 expressed in HEK293 cells by electrophysiology assay to IC50 for inhibition of human Nav1.7 expressed in HEK293 cells by electrophysiology assay; assay type: cell-based
Homo sapiens [11] = organism: Homo sapiens; assay: Selectivity index, ratio of IC50 for inhibition of human Nav1.6 expressed in HEK293 cells by electrophysiology assay to IC50 for inhibition of human Nav1.7 expressed in HEK293 cells by electrophysiology assay; assay type: cell-based
Homo sapiens [12] = organism: Homo sapiens; assay: Selectivity index, ratio of IC50 for inhibition of human Nav1.8 expressed in HEK293 cells by electrophysiology assay to IC50 for inhibition of human Nav1.7 expressed in HEK293 cells by electrophysiology assay; assay type: cell-based
[13] = molecular target: Sodium channel protein type 4 subunit alpha (Homo sapiens, UniProt P35499); assay: Inhibition of human Nav1.4 expressed in HEK293 cells by electrophysiology assay; assay type: cell-based
Chain of Sodium channel protein type 4 subunit alpha (P35499 whole entry): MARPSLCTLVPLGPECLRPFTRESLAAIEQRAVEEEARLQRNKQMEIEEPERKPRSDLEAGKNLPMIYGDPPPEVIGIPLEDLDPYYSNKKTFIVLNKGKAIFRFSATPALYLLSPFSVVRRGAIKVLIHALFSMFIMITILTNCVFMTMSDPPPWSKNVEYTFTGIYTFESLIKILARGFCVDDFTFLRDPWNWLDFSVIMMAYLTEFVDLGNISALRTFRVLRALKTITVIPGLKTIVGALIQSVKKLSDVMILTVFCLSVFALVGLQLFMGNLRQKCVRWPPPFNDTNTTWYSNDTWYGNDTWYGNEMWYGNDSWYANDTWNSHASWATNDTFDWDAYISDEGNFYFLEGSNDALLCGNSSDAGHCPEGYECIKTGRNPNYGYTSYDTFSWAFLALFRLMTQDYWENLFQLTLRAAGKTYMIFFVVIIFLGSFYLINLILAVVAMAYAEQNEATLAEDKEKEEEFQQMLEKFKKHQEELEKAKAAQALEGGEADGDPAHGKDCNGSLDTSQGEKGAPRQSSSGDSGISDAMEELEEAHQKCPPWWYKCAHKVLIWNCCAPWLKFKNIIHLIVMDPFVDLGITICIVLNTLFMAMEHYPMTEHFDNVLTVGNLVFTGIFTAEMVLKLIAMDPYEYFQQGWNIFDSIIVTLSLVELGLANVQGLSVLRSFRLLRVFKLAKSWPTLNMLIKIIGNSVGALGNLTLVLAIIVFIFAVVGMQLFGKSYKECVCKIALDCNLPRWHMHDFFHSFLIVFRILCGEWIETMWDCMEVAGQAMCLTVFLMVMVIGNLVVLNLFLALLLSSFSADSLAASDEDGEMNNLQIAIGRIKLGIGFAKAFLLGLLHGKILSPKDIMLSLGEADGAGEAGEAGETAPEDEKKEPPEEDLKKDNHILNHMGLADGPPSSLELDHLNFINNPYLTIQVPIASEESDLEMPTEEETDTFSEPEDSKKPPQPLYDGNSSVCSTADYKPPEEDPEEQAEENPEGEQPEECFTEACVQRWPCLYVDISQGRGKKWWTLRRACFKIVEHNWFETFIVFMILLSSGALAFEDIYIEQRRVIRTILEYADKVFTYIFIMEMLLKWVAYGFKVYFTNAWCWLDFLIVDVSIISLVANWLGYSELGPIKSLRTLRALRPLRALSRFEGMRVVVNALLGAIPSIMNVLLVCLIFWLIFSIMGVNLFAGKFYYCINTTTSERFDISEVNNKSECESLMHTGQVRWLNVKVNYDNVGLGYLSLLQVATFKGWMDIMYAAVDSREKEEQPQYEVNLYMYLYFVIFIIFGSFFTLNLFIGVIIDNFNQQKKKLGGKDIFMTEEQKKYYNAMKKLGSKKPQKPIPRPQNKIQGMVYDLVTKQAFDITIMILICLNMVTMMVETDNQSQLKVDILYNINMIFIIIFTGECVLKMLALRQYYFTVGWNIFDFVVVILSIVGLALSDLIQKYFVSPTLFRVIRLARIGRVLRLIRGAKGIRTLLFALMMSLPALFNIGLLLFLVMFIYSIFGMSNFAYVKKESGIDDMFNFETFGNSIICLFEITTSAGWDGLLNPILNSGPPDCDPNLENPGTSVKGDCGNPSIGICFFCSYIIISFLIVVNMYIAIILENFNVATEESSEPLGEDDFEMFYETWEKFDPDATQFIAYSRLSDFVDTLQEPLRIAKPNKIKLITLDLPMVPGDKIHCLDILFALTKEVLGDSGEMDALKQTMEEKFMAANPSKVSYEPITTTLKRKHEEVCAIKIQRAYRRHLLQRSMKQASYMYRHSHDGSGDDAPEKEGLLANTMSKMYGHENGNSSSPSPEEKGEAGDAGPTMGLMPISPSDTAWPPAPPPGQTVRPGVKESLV

[14] = molecular target: Sodium channel protein type 9 subunit alpha (Rattus norvegicus, UniProt O08562); assay: Inhibition of rat Nav1.7 expressed in HEK293 cells by electrophysiology assay; assay type: cell-based
[15] = molecular target: Sodium channel protein type 1 subunit alpha (Homo sapiens, UniProt P35498); assay: Inhibition of human Nav1.1 expressed in HEK293 cells by electrophysiology assay; assay type: cell-based
[16] = molecular target: Sodium channel protein type 3 subunit alpha (Homo sapiens, UniProt Q9NY46); assay: Inhibition of human Nav1.3 expressed in HEK293 cells by electrophysiology assay; assay type: cell-based
Homo sapiens [17] = organism: Homo sapiens; assay: Selectivity index, ratio of IC50 for inhibition of human Nav1.1 expressed in HEK293 cells by electrophysiology assay to IC50 for inhibition of human Nav1.7 expressed in HEK293 cells by electrophysiology assay; assay type: cell-based
Homo sapiens [18] = organism: Homo sapiens; assay: Selectivity index, ratio of IC50 for inhibition of human Nav1.3 expressed in HEK293 cells by electrophysiology assay to IC50 for inhibition of human Nav1.7 expressed in HEK293 cells by electrophysiology assay; assay type: cell-based
Homo sapiens [19] = organism: Homo sapiens; assay: Selectivity index, ratio of IC50 for inhibition of human Nav1.4 expressed in HEK293 cells by electrophysiology assay to IC50 for inhibition of human Nav1.7 expressed in HEK293 cells by electrophysiology assay; assay type: cell-based
[20] = Unbound fraction in mouse plasma; assay type: ADME, cell-free
[21] = Ratio of unbound plasma concentration in mouse model of histamine-induced pain to IC50 for inhibition of mouse Nav1.7 expressed in HEK293 cells by electrophysiology assay; assay type: cell-based
[22] = Ratio of unbound plasma concentration in mouse model of capsaicin-induced pain to IC50 for inhibition of mouse Nav1.7 expressed in HEK293 cells by electrophysiology assay; assay type: cell-based

In the case of `NC1=N[C@H](O)[C@H]2[C@H]3O[C@]4(O)O[C@@H]([C@@H](O)[C@@]2(N1)[C@@H]4O)[C@]3(O)CO`, the ED (Rattus norvegicus [1]) is reported as 6 µg/kg, the ED (Rattus norvegicus [2]) is reported as 1 µg/kg and the ED (Rattus norvegicus [3]) is reported as 1 to 3 µg/kg.

`O=C1N(Cc2ccc(C(F)(F)F)o2)c2ccccc2[C@]12COc1cc3c(cc12)OCO3` [FUNAPIDE] showed an IC50 [4] of 54 nM, an IC50 [5] of 600 nM and an IC50 [6] of 84 nM. For the same compound, the IC50 [7] was 170 nM, the IC50 [8] was 4800 nM and the Ratio IC50 (Homo sapiens [9]) was 11. For the same compound, the Ratio IC50 (Homo sapiens [10]) was 1.5, the Ratio IC50 (Homo sapiens [11]) was 3.1 and the Ratio IC50 (Homo sapiens [12]) was 89.

`N#Cc1cc(S(=O)(=O)Nc2ncns2)ccc1Oc1ccc(-c2cccc(C(F)(F)F)c2)cc1-c1ccnc(CNCCC2CCNCC2)c1` gave an IC50 [5] of 3 nM, an IC50 [13] of 1500 nM and an IC50 [6] of 2600 nM. It also gave an IC50 [7] of 5.8 nM and an IC50 [8] of 26000 nM.

Work on `CSCC[C@@H]1NC(=O)[C@H](Cc2ccc(O)cc2)NC(=O)[C@H](CCCNC(=N)N)NC(=O)[C@@H](NC(=O)[C@@H](N)CC(=O)O)CSSC[C@@H]2NC(=O)[C@@H]3CSSC[C@@H](C(=O)N[C@@H](C)C(=O)N[C@@H](Cc4c[nH]c5ccccc45)C(=O)N[C@@H](CC(=O)O)C(=O)N[C@@H](Cc4ccccc4)C(=O)N[C@H](C(=O)N[C@@H](Cc4ccccc4)C(=O)N[C@H](C(=O)O)[C@@H](C)O)[C@@H](C)O)NC(=O)[C@H](Cc4ccc(O)cc4)NC(=O)[C@H](CCCCN)NC(=O)[C@H](CCSC)NC(=O)[C@H](CCCCN)NC(=O)[C@H](CCCNC(=N)N)NC(=O)[C@H](CCCCN)NC(=O)[C@H](CSSC[C@H](NC(=O)[C@H](CC(=O)O)NC(=O)CNC(=O)[C@H](Cc4ccccc4)NC1=O)C(=O)N[C@@H](CCC(=O)O)C(=O)N[C@@H](CCCCN)C(=O)N[C@@H](CC(=O)O)C(=O)N[C@@H](CCC(=O)O)C(=O)N[C@@H](CC(=O)O)C(=O)N3)NC(=O)CNC(=O)[C@H](CC(C)C)NC(=O)[C@H](Cc1cnc[nH]1)NC(=O)[C@H](CCCCN)NC2=O` yielded an IC50 [5] of 120 nM, an IC50 [13] of 140 nM and an IC50 [14] of 1.5 nM.

For `COc1cc(-c2cc(F)cc(Cl)c2)c(F)cc1-n1c(=O)ccc2cc(S(=O)(=O)Nc3ccon3)ccc21`, the IC50 [15] was > 14000 nM, the IC50 ([15]; hek293) was > 14000 nM and the IC50 [16] was > 14000 nM. For the same compound, the IC50 ([16]; hek293) was > 14000 nM, the IC50 [13] was > 14000 nM and the IC50 ([13]; hek293) was > 14000 nM. For the same compound, the IC50 [6] was > 14000 nM, the IC50 ([6]; hek293) was > 14000 nM and the IC50 [7] was 1300 nM and > 10000 nM. The Ratio IC50 (Homo sapiens [17]) was > 4300, the Ratio IC50 (Homo sapiens [18]) was > 4300 and the Ratio IC50 (Homo sapiens [19]) was > 4300. For the same compound, the Ratio IC50 (Homo sapiens [10]) was > 4300, the IC50 [14] was 8600 nM and > 42000 nM and the Fu [20] was 0.014. For the same compound, the fraction unbound [20] was 0.0017, the Ratio [21] was 5.3 and 4 and the Ratio [22] was 21.

Source: ChEMBL document CHEMBL4321785, “Challenges and Opportunities for Therapeutics Targeting the Voltage-Gated Sodium Channel Isoform NaV1.7” (J Med Chem, 2019)
